The test system of data set [1] is skin organotypic cultures (Epiderm). The data set can be described thus: Viability of skin organotypic cultures (MTT assay). The class given is cell-based. As to the method: (§1) The cultures were then incubated at 37° C., 5% CO2, and 95% relative humidity (standard cell culture conditions) for 24 h. The culture medium was assayed for the pro-inflammatory cytokine interleukin-6 (IL-6) and after washing to remove the AP formulation, the viability of the culture was determined using the Thiazoyl blue (MTT) assay (Mosmann, T. J. Immunol. Methods 65, p55 (1983). IL-6 was determined using an Immunoassay (Quantikine, R&D systems).
(§2) In this Example, skin organotypic cultures (Epiderm™, MatTek, USA) were treated topically with the above-identified AP formulation and the trans-10-cis-12 conjugated linoleic acid (TC CLA) was introduced into the medium. The cultures were then incubated at 37° C., 5% CO2, and 95% relative humidity (standard cell culture conditions) for 24 h. The culture medium was assayed for the pro-inflammatory cytokine interleukin-6 (IL-6) and after washing to remove the AP formulation, the viability of the culture was determined by the method described in Example 2.
(§3) The cultures were then incubated at 37° C., 5% CO2, and 95% relative humidity (standard cell culture conditions) for 24 hours. The culture medium was assayed for the pro-inflammatory cytokine interleukin-6 (IL-6) and after washing to remove the AP formulation, the viability of the culture was determined using the MTT assay. IL-6 was determined using an ELISA assay (R&D systems).
In general terms: Formazan colour is commonly taken as a measure of viable cells.

In the next data set the test system is interleukin-6 (IL-6). Briefly: Skin organotypic culture analysis: AP-induced IL-6 release into the medium. The class given is cell-based. The conditions noted are these: for IL-6 release (mean ± SD): 24 h, Nil 21.5, AP 57.1. As to the method: as §1, §2, §3

This is an account of results in patent publication US6713051B2, “Antiperspirant or deodorant compositions” (Unilever Home & Personal Care USA division of Conopco, Inc., priority 2001, dated 2004).

`CC\C=C/C=C/C=C/C=C\CCCCCCCC(=O)O` [cis parinaric acid, cis-parinaric acid]: the Culture viability result in data set [1] was “not significantly different”. Also, the “AP-induced IL-6 release” value in the data set on interleukin-6 (IL-6) (1-100 μM, Dunnet's test p<0.05) is on record as “significantly decrease”. The entries for the “IL-6 release (mean ± SD)” value in the data set with interleukin-6 (IL-6) (Table 14: 1.0 μM (+ AP)), in the data set on interleukin-6 (IL-6) (Table 14: 10.0 μM (+ AP)) and in the data set with interleukin-6 (IL-6) (Table 14: 100.0 μM (+ AP)) were 26.8, 23.3 and 25.7, respectively.
